Results taken from patent US20130216590A1, “TOPICAL ANTIVIRAL FORMULATIONS FOR PREVENTION OF TRANSMISSION OF HSV-2” (priority 2010, published 2013).
In brackets after ≈: the same amount, converted by molar mass.

Tests used:
HIV-1 RT = molecular target: T1, HIV-1 RT (Human immunodeficiency virus type 1 group M subtype B, UniProt P04585); assay: HIV-1 reverse transcriptase assay; type: biochemical
T1 construct: HSV-1 DNA Polymerase and HIV-1 Reverse Transcriptase Assay
Experimental: (§1) The reaction mixture (40 μl) for the HSV-1 DNA polymerase and HIV-1 RT assays contained 4 μl Premix (200 mM Tris.HCl, pH 7.5; 2 mM DTT; 30 mM MgCl2), 4 μl BSA (5 mg/ml), 1.6 μl activated calf thymus DNA (1.25 mg/ml), 0.8 μl dCTP (5 mM), 0.8 μl dTTP (5 mM), 0.8 μl dGTP (5 mM), 2 μl radiolabeled [^3H]dATP (1 mCi/ml) (3.3 μM), 18 μl H2O and 4 μl tenofovir-DP at different concentrations (i.e. 200, 20, 2, 0.2 μM). The reaction was started by the addition of 4 μl recombinant HSV-1 DNA polymerase (kindly provided by M. W. Wathen (Pfizer, Kalamazoo, Mich.)) or recombinant HIV-1 RT (in 20 mM Tris.HCl, pH 8.0; 1 mM DTT; 0.1 mM EDTA; 0.2 M NaCl; 40% glycerol), and the reaction mixture was incubated for 60 min (HSV-1 DNA polymerase) or 30 min (HIV-1 RT) at 37° C. Then, 1 ml ice-cold 5% TCA in 0.02 M Na4P2O7.10H2O was added to terminate the polymerisation reaction, after which the acid-insoluble precipitate (radiolabeled DNA) was captured onto Whatman glass fiber filters type GF/C (GE Healthcare UK Limited, Buckinghamshire, UK) and further washed with 5% TCA and ethanol to remove free radiolabeled dATP. Radioactivity was determined in a Perkin Elmer Tri-Carb 2810 TR liquid scintillation counter.

HSV-1 DNA polymerase = molecular target: T2, HSV-1 DNA polymerase (Human herpesvirus 1, UniProt P04293); assay: HSV-1 DNA polymerase assay; type: biochemical; conditions: activated calf thymus DNA primer/template; [2,8-3H]dATP competing substrate
T2 construct: gift of M. W. Wathen (Pfizer, Kalamazoo, Mich.)
Experimental: as §1

HSV-2 = assay: Herpes virus infection of primary monocyte/macrophage (M/M) cell cultures; type: cell-based
Experimental: Human peripheral blood mononuclear cells (PBMCs) were obtained from the blood of healthy seronegative donors by Ficoll-Hypaque density gradient centrifugation. […] Monocyte/macrophage (M/M) cells were separated by adherence onto plastic. […] African green monkey fibroblastoid kidney (Vero) cells highly sensitive to the cytopathic effect of HSV-2 were grown in RPMI medium supplemented with 10% heat inactivated FCS and were used in infectious virus titration assays.
Macrophage cultures were then infected with HSV-2 (100 CCID50) in the presence of the test compounds. After 2 hrs virus adsorption, the cultures were extensively washed to remove any residual virus particles. Fresh culture medium and compounds, at the indicated concentrations, were then added to the cultures. […] Appropriate positive (infected but not treated M/M) and mock-infected negative (uninfected and untreated M/M) controls were run for each experiment as well. All assays were performed in triplicate. […] Therefore, the potential inhibitory effect of the compounds on the replication of HSV-2 was evaluated 6 days after infection. The amount of infectious virus in the supernatants was determined by a classical limited dilution assay on Vero cell cultures. The titers of produced virus were calculated according to the Reed and Muench method and expressed as 50% tissue culture infective dose per ml (TCID50/ml).
The inhibition capacity was expressed in % and calculated considering as value 100 being the virus production in virus-infected untreated cultures.

HSV-1 and HSV-2 = assay: HSV cytopathic effect (CPE) reduction assay, laboratory strains, HEL cell monolayers and PHKs; type: cell-based, herpes simplex virus; conditions: laboratory HSV strains; HEL cell monolayers and PHKs; read-out: EC50, inhibition of virus-induced cytopathicity
HSV-2 (G) = assay: Organotypic epithelial raft cultures infected with HSV-2; type: cell-based; conditions: for activity against HSV replication in rafts compared with tenofovir: HSV-1 and HSV-2, FIGS. 3A and 3B; for concentration resulting in complete protection of the epithelial tissue: HSV-2, data not shown
Experimental: (§2) For the preparation of epidermal equivalents, a collagen matrix solution was made with collagen mixed on ice with 10-fold concentrated HAM's F12 media, 10-fold reconstitution buffer and Swiss 3T3 J2 fibroblasts. One milliliter of the collagen matrix solution was poured into the wells of 24-well microtiter plates. After gel equilibration with 1 ml of growth medium overnight at 37° C., 2.5×10^5 PHK cells were seeded on the top of the gels and maintained submerged for 24-48 hours. The collagen rafts were raised and placed onto stainless-steel grids at the interface between air and liquid culture medium. The growth medium was a mixture of ⅓ HAM F12 and ⅔ Dulbecco's modified Eagle's medium, with the same supplements as used for the Keratinocyte-SFM. Epithelial cells were allowed to stratify, the medium being replaced every 2-3 days. For the evaluation of the antiviral effects of the compounds in the raft system, two series of rafts were run in parallel, one for histological examination and the other one for quantification of viral production by a plaque reduction assay. Rafts were infected with 5,000 PFU of HSV-1 (KOS) or […] strains after 10 days post-lifting and then the medium was replaced by medium containing different dilutions of the compounds. The growth medium containing the different concentrations of the compounds was changed two days later and 3 days later (after 15 days of differentiation), one series of rafts was fixed in 10% buffered formalin, embedded in paraffin and stained with hematoxylin and eosin for histological evaluation. Another series of rafts was used to quantify virus production. For that purpose, each raft was frozen in 3 ml phosphate buffer saline (PBS) and thawed to release the virus from the infected epithelium. Supernatants were clarified by centrifugation at 1,800 rpm and titrated by a plaque assay in HEL cell cultures. Virus production in each raft was then calculated. Two rafts were used for each drug concentration to determine the effects of the compounds on virus yield.

HSV-1 (KOS) = assay: Organotypic epithelial raft cultures infected with HSV-1; type: cell-based; conditions: reference HSV-1 laboratory strain
Experimental: as §2

[1] = system: organotypic raft cultures of keratinocytes; assay: Toxic effects in organotypic epithelial raft cultures; type: cell-based; conditions: highest concentration, 50 μg/ml
Experimental: as §2

HSV-1 (Kos strain) = assay: In vivo antiviral activity in HSV-1-infected NMRI athymic nude mice
Experimental: (§3) Adult NMRI athymic nude mice (weighing ˜20 g) were scarified on the lumbosacral area over a surface of about 1 cm^2. Mice were inoculated with 5×10^3 PFU of HSV-1 (Kos strain) or 5×10^2 of HSV-2 (G strain) in 50 μL per mouse. […] In each experiment, a group of animals treated with a placebo formulation that was the same as the test formulation without drug was included as a negative control. […] The day of virus inoculation was always considered as day 0. All animal procedures were approved by the K.U. Leuven Animal Care Committee. Development of lesions and mortality were recorded over a one month period. Animals were euthanized when more than 30% loss in body weight or development of paralysis occurred. Survival rates were estimated according to the Kaplan-Meir method and were compared using the log-rank test (Mantel-Cox) test (GraphPad Prism).

HSV-2 (G strain) = assay: In vivo antiviral activity in HSV-2-infected NMRI athymic nude mice; conditions: for protection against viral-induced morbidity and mortality: 1% in DMSO (FIG. 5B)
Experimental: as §3

[2] = system: HSV-1 and HSV-2 clinical isolates; assay: organism not typed; type: cell-based, herpes simplex virus; conditions: for antiherpetic activity against thymidine kinase-deficient strains compared with wild-type: clinical isolates, HEL
HSV-2 strain G (HSV-2G) = assay: Human ex vivo tonsillar tissue, HSV DNA release by real-time PCR; type: cell-based; conditions: 33 μg/ml; tissues from two donors; data not shown
Experimental: For each experimental condition 16 tissue blocks were immersed in 500 μl of a HSV-2 (strain G) suspension for 2 hours at 37° C., washed three times with PBS and then placed on the gelfoam rafts. Tenofovir was added during the infection and replenished at each culture medium change. Herpes simplex viral replication was evaluated by the release of viral DNA into the culture medium as measured by quantitative real-time PCR (17). HIV-1 replication was evaluated by the release of p24 capsid antigen using a bead-based assay (18).

T2 sequence (P04293 whole entry): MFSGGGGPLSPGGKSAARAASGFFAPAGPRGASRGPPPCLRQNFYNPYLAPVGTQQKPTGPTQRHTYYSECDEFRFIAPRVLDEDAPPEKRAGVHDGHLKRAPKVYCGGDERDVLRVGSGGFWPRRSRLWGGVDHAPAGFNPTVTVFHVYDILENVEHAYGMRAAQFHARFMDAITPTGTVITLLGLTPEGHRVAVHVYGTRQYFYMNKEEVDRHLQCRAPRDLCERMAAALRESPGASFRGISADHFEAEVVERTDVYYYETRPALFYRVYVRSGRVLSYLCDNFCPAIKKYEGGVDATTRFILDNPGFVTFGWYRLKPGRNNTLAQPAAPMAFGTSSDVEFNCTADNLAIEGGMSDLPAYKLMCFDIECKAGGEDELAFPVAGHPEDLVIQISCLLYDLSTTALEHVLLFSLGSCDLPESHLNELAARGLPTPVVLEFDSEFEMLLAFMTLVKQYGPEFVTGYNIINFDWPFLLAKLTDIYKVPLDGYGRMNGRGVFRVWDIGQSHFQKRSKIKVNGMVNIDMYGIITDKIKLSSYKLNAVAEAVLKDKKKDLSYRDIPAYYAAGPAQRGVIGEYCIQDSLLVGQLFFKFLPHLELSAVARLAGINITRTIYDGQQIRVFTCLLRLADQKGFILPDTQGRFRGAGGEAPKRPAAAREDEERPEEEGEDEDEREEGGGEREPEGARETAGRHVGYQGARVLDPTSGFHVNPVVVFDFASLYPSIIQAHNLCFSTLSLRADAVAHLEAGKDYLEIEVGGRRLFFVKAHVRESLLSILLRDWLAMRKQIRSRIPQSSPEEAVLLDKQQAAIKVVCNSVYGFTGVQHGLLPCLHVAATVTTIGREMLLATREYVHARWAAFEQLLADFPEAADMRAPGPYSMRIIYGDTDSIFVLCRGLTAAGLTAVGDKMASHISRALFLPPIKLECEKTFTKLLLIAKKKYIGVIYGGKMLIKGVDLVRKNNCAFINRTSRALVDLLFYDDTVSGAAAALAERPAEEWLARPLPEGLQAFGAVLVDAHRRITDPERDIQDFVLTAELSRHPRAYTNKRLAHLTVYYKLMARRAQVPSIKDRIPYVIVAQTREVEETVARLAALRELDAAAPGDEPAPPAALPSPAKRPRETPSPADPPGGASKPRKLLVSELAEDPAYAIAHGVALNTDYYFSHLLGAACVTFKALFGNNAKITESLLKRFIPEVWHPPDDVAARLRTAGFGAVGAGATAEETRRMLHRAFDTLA

C[C@H](Cn1cnc2c(N)ncnc21)OCP(=O)(O)OP(=O)(O)OP(=O)(O)O [Tenofovir-DP, (R)-(1-(6-amino-9H-purin-9-yl)propan-2-yloxy)methylphosphonic diphosphoric anhydride]
IC50 (HIV-1 RT): 4300 nM
IC50 (HSV-1 DNA polymerase): 1300 nM

Nc1nc2c(ncn2COCCO)c(=O)[nH]1 [acyclovir, 9-(2-hydroxyethoxymethyl)guanine]
virus released in the supernatants and visible cytopathicity (HSV-2; concentrations equal to, or higher than 0.008 μg/ml): full suppression of virus released in the supernatants and no visible cytopathicity

Nc1ncnc2c1ncn2CCOCP(=O)(O)O [adefovir, 9-[2-(phosphonylmethoxyethyl)adenine]]
EC50 (HSV-1 and HSV-2): 3.6 to 13 µg/mL (≈ 13.2 to 47.6 µM)
HSV titer in supernatants (HSV-2; 0.4 μg/ml): 5.4×10^3 TCID50/ml
visible CPE (HSV-2; 0.4 μg/ml): 45%
HSV titer in supernatants (HSV-2; 1 μg/ml): 8.5×10^2 TCID50/ml
visible CPE (HSV-2; 1 μg/ml): 5%
viral particles in the supernatants and visible CPE (HSV-2; drug concentrations between 500 and 5 μg/ml): neither viral particles in the supernatants nor visible CPE were found
activity against HSV replication in rafts compared with tenofovir (HSV-2 (G)): more active against HSV replication than tenofovir
concentration resulting in complete protection of the epithelial tissue (HSV-2 (G)): ≥ 2 µg/mL
concentration giving complete protection from virus-induced cytopathic effect (HSV-1 (KOS)): 2 µg/mL
toxic effects (increase in number of dead cells or alteration of differentiation) [1]: No toxic effects
survival (HSV-1 (Kos strain); 1% in DMSO): 80%
skin lesions in mice that died (HSV-1 (Kos strain); 1% in DMSO formulation): died without developing skin lesions
survival (HSV-1 (Kos strain); 1% in gel, data not shown): 100%
protection against viral-induced morbidity and mortality (HSV-2 (G strain)): 80%
appearance of lesions and subsequent death (HSV-2 (G strain); formulated in the gel at 1%): significant delay in the appearance of lesions and subsequent death

O=c1[nH]c(=O)n([C@H]2C[C@H](O)[C@@H](CO)O2)cc1/C=C/Br [brivudin, RE)-5-(2-bromovinyl)-1(-D-2′-deoxyribofuranos-1-yl-uracil]
antiherpetic activity against thymidine kinase-deficient strains compared with wild-type [2]: lost their antiherpetic activity

Nc1ccn(C[C@@H](CO)OCP(=O)(O)O)c(=O)n1 [cidofovir, (S)-1-(3-hydroxy-2-phosphonylmethoxypropyl)cytosine]
EC50 (HSV-1 and HSV-2): 0.63 to 4.4 µg/mL (≈ 2.26 to 15.8 µM)
EC50 ([2]; Fibroblast, read-out: mean EC50 values (range over isolate groups)): 0.35 to 0.67 µg/mL (≈ 1.25 to 2.4 µM)
activity against HSV replication in rafts compared with tenofovir (HSV-2 (G)): more active against HSV replication than tenofovir
concentration resulting in complete protection of the epithelial tissue (HSV-2 (G)): 0.2 µg/mL
concentration giving complete protection from virus-induced cytopathic effect (HSV-1 (KOS)): ≥ 0.5 µg/mL
toxic effects (increase in number of dead cells or alteration of differentiation) [1]: No toxic effects
protection against virus-induced morbidity and mortality (HSV-1 (Kos strain); either the DMSO or the gel formulation): completely protected
protection against viral-induced morbidity and mortality (HSV-2 (G strain)): 100%
protection against HSV-2-induced morbidity and mortality (HSV-2 (G strain); formulated in gel): 80%

Nc1nc2c(ncn2COC(CO)CO)c(=O)[nH]1 [ganciclovir, 9-(1,3-dihydroxy-2-propoxymethyl)guanine]
antiherpetic activity against thymidine kinase-deficient strains compared with wild-type [2]: lost their antiherpetic activity

Nc1ccn([C@@H]2CS[C@H](CO)O2)c(=O)n1 [lamivudine]
effect on HSV-2G replication compared to untreated donor-matched tissues (HSV-2 strain G (HSV-2G)): no effect

Nc1nc2c(ncn2CCC(CO)CO)c(=O)[nH]1 [penciclovir, 9-(4-hydroxy-3-hydroxymethylbut-1-yl)guanine]
antiherpetic activity against thymidine kinase-deficient strains compared with wild-type [2]: lost their antiherpetic activity
